These results are taken from ChEMBL document CHEMBL6103673, “Novel 1,6-Naphthridine Compounds as SMARCA2 Inhibitors for Treating Non-small Cell Lung Cancer” (ACS Med Chem Lett, 2025).

Each structure is given as a SMILES string. pIC50: −log10 of the molar value.

The nature of the assay: Inhibition of SMARCA2/SMARCC1/SMARCC2/SMARCB1 (unknown origin) using ATP/nucleosome mix as substrate preincubated for 30 mins followed by substrate addition and measured after 180 mins by ADP-Glo assay. The arrangement: species or system Homo sapiens.
As for `Cc1ccc(NC(=O)Cc2cc3cc(-c4cccc(N5C[C@@H](C)O[C@@H](C)C5)n4)ccc3cn2)cc1S(C)(=O)=O`, the pIC50 – broadly, the negative decadic logarithm of the IC50, by convention in mol/L – was 9.32.

`C[C@@H]1CN(c2cccc(-c3ccc4cnc(CC(=O)Nc5cccc(S(=O)(=O)C(F)F)c5)cc4n3)n2)C[C@H](C)O1` gave a negative logarithm of the IC50 (pIC50) of 9.35.

For the molecule `C[C@@H]1CN(c2cccc(-c3ccc4cnc(CC(=O)N[C@@H]5C[C@H](C)N(S(=O)(=O)C(F)F)C5)cc4c3)n2)C[C@H](C)O1`, the pIC50 was 9.48.

As to `C[C@@H]1CN(c2cccc(-c3ccc4cnc(CC(=O)N[C@@H]5CN(S(=O)(=O)C(F)F)CC(F)(F)C5)cc4n3)n2)C[C@H](C)O1`, the pIC50 was 9.37.

`C[C@@H]1CN(c2cccc(-c3ccc4cnc(CC(=O)N[C@@H]5CCN(S(=O)(=O)C(F)F)C5)cc4c3)n2)C[C@H](C)O1` showed a pIC50 of 9.28.

Take `C[C@@H]1CN(c2cccc(-c3ccc4cnc(CC(=O)N[C@@H]5C[C@@H](F)CN(S(=O)(=O)C(F)F)C5)cc4n3)n2)C[C@H](C)O1`: the pIC50 is 9.30.
